Results on two compounds are retold here after article PMC6222422, “Synthesis and Biological Evaluation of Novel Indole-Derived Thioureas” (Molecules : A Journal of Synthetic Chemistry and Natural …, 2018).

SMILES strings stand for the structures. In brackets after ≈: the same amount, converted by molar mass.

One data set has as its system CV-B5. In words: microbe, parasite or virus in culture. The data set is classed as cell-based, coxsackievirus B5. The conditions noted are these: Enterovirus B, CVB5, Vero 76, read-out: CV-B5 EC50.
In data set [1] the test system is hospital methicillin-susceptible strains of S. aureus (MSSA). The experiment in a line: MIC against hospital strains. The conditions noted are these: Staphylococcus aureus.
The next data set has as its system B. subtilis ATCC 6633. In words: disc diffusion method. The format is cell-based, Bacillus subtilis. The conditions noted are these: Bacillus subtilis, ATCC6633, applied 400 µg per disc, dash = lack of the growth inhibition area, read-out: diameter of growth inhibitory zone (GIZ). On the technique in general: Agar diffusion results depend on both activity and mobility in agar.

Data set [2] can be described thus: in vitro. The conditions noted are these: Syrian hamster (Mesocricetus auratus).
A further data set deals with M. luteus ATCC 9341. In words: disc diffusion method. The format is cell-based, Micrococcus luteus. The conditions noted are these: Micrococcus luteus, ATCC9341, applied 400 µg per disc, dash = lack of the growth inhibition area, read-out: diameter of growth inhibitory zone (GIZ).
For a further data set, the system named is YFV. The experiment in a line: microbe, parasite or virus in culture. The conditions noted are these: Yellow fever virus, BHK, read-out: YFV EC50. The format is cell-based.
The subject of data set [3] is S. epidermidis ATCC 12228. The experiment in a line: disc diffusion method. The format is cell-based, Staphylococcus epidermidis. The conditions noted are these: Staphylococcus epidermidis, ATCC12228, applied 400 µg per disc, dash = lack of the growth inhibition area, read-out: diameter of growth inhibitory zone (GIZ).
A further data set deals with VV. The experiment in a line: microbe, parasite or virus in culture. The data set is classed as cell-based. The conditions noted are these: Orthopoxvirus vaccinia, Vero 76, read-out: VV EC50.
Data set [4] is described as follows: in vitro. The conditions noted are these: human.
Data set [5] has as its target T1, S. aureus topoisomerase IV (Staphylococcus aureus, UniProt P0C1S7+P0C1U9). The conditions noted are these: 64 to 0.5 µg/mL, Figure 2.
For data set [6], the target named is T1, S. aureus topoisomerase IV. The experiment in a line: biochemical.
Where [7] appears, read: hospital S. aureus MSSA strain 440/11.
[8] abbreviates: hospital S. aureus MSSA strain 441/11.
Where [9] appears, read: hospital S. aureus MSSA strain 442/11.
[10] abbreviates: hospital S. aureus MSSA strain 443/11.
The mark [11] stands for this setting: hospital S. aureus MSSA strain 444/11.
[12] abbreviates: hospital S. aureus MSSA strain 445/11.
Where [13] appears, read: hospital S. aureus MSSA strain 446/11.
[14] abbreviates: hospital S. aureus MSSA strain 447/11.
The mark [15] stands for this setting: hospital S. aureus MSSA strain 448/11.
Setting [16] is: hospital S. aureus MSSA strain 449/11.

T1 sequence (P0C1U9 whole entry): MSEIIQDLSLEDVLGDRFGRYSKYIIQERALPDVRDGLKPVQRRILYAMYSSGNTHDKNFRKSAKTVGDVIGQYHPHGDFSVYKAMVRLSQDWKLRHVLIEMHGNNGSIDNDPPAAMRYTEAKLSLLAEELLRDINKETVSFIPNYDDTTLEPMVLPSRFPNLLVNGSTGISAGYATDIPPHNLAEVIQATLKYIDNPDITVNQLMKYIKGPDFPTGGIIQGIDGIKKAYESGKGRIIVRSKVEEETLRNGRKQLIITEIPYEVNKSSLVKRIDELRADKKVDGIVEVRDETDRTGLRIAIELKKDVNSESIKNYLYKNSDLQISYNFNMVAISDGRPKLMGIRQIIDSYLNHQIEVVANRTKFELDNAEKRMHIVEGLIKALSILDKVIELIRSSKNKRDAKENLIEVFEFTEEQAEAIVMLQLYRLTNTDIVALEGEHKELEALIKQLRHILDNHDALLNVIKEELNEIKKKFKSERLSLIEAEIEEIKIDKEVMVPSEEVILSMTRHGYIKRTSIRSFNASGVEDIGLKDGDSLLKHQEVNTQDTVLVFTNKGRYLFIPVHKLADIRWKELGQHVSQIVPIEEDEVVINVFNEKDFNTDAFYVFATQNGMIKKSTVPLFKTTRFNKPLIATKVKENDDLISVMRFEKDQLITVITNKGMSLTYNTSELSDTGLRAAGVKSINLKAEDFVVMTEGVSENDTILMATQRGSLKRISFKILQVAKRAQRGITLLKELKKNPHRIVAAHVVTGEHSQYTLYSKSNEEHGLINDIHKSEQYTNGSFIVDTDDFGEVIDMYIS
T1 sequence (P0C1S7 whole entry): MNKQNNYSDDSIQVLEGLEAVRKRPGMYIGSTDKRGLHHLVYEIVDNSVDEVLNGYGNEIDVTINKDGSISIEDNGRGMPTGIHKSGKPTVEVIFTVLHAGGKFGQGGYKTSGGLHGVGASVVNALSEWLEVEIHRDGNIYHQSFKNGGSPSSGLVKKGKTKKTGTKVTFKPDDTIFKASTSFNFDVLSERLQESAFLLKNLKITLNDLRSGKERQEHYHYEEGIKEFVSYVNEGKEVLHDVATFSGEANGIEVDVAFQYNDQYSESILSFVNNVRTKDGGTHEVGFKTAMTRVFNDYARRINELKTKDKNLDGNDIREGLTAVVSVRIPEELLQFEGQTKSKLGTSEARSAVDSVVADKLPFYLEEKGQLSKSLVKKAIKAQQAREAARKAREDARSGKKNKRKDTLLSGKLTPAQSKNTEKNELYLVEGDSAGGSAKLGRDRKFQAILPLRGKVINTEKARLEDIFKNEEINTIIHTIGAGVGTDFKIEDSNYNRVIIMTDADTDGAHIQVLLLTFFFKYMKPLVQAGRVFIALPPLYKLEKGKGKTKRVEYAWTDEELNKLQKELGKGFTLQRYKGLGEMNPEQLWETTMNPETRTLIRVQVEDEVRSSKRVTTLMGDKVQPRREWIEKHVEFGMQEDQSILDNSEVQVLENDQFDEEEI

With `S=C(NCCc1c[nH]c2ccccc12)Nc1cccc(Cl)c1` [Compound 14, 1-(2-(1H-Indol-3-yl)ethyl)-3-(3-chlorophenyl)thiourea], the figures for the half-maximal effective concentration (EC50) in the data set on CV-B5, in the data set on YFV and in the data set on VV were 9 ± 1.2 µM, more than 6 µM and more than 32 µM, respectively. For the same compound, the minimal inhibitory concentration (MIC) in [1] (setting [7]) amounted to 25 µg/mL (≈ 75.8 µM); in [1] (setting [8]), 25 µg/mL (≈ 75.8 µM); in [1] (setting [9]), 25 µg/mL (≈ 75.8 µM); in data set [1] (setting [10]), 25 µg/mL (≈ 75.8 µM); in data set [1] (setting [11]), 12.5 µg/mL (≈ 37.9 µM); in data set [1] (setting [12]), 25 µg/mL (≈ 75.8 µM). Further, the MIC in data set [1] (setting [13]), in data set [1] (setting [14]), in data set [1] (setting [15]) and in data set [1] (setting [16]) was 25 µg/mL (≈ 75.8 µM) in each case. Moreover, the zone of inhibition at 400 µg/disc (in the data set with B. subtilis ATCC 6633; in the data set with M. luteus ATCC 9341; in data set [3]) was 12 mm throughout. Also, the values for the CC50 in “in vitro [2]” and in “in vitro [4]” were 6 µM and 42 µM, respectively. Moreover, the “effect against DNA topoisomerase IV (in words)” value in data set [5] is on record as “not significantly effective”.

Turning to `S=C(NCCc1c[nH]c2ccccc12)Nc1ccc(Cl)c(Cl)c1` [Compound 6, 1-(2-(1H-indol-3-yl)ethyl)-3-(3,4-dichlorophenyl)thiourea], the results for the EC50 with CV-B5, with YFV and in the data set on VV were more than 13 µM, more than 10 µM and more than 13 µM, respectively. Moreover, the minimal inhibitory concentration (MIC) in data set [1] (setting [7]), in [1] (setting [8]), in data set [1] (setting [9]), in data set [1] (setting [10]), in data set [1] (setting [11]) and in data set [1] (setting [12]) was 6.25 µg/mL (≈ 17.2 µM) in each case. For the same compound, the minimal inhibitory concentration (MIC) in data set [1] (setting [13]), in [1] (setting [14]), in data set [1] (setting [15]) and in [1] (setting [16]) was 6.25 µg/mL (≈ 17.2 µM) in each case. In addition, the zone of inhibition at 400 µg/disc with B. subtilis ATCC 6633 was found to be 15 mm; with M. luteus ATCC 9341 it was 15 mm; in [3], 16 mm. Moreover, the CC50 in “in vitro [2]” was determined as 10 µM; in “in vitro [4]”, 45 µM. Besides, the 50% inhibitory concentration (IC50) in data set [6] is 79.3 µM.

In general, EC50 refers to the concentration needed to bring the measured effect to its halfway point. The MIC is the least concentration at which growth counts as inhibited. A lower MIC goes with greater potency. What is called IC50 is the concentration that gives 50% inhibition. Lower therefore signals higher potency.
